Assay results reported in patent US20070173450A1, “PROCESS FOR THE SYNCHRONIZATION OF OVULATION FOR TIMED BREEDING WITHOUT HEAT DETECTION” (priority 2003, published 2007).

What was measured:
Type in all cases: in vivo, swine
postpartum sows [1] = assay: Single timed deslorelin injection 96 h post-weaning, single timed insemination without estrus detection; settings: 50 mcg deslorelin in SAIB 96 h post-weaning
Experimental: Approximately 170 postpartum sows were randomly divided into two equal groups comprised of controls and treated. Following weaning, the controls were detected for estrus and bred following the normal standard operating procedures for the farms on which they resided. The treated sows received a 50 mcg dose of deslorelin in SAIB at 96 hours post-weaning and were bred with a single insemination 28+/−2 hours later with no regard to estrus detection. The sows were examined for pregnancy by ultrasound at 21 days and slaughtered around 28 days post breeding. The entire reproductive tract was removed and corpora lutea and embryos were counted.

postpartum sows [2] = assay: Litter size after deslorelin treatment in sows at three farm sites; settings: Tables 3-5, three farm sites, regardless of estrus detection
Source text: Postpartum sows were randomly distributed into three different groups comprised of Controls, Treatment 1, and Treatment 2, with the exception of Site 3, which was divided into two groups, Control and Treatment 2. Control sows were detected for estrus following weaning, and bred following the normal standard operating procedures for the farms on which they resided. Treatment 1 sows were detected for estrus following weaning, and received a 50 mcg dose of deslorelin in the morning when standing and were bred by AI 4 hours later and again at 24+/−2 hours later. Treatment 2 sows received a 50 mcg dose of deslorelin in SAIB at 96 or 120 hours post-weaning and were bred with a single insemination 28+/−2 hours later with no regard to estrus detection.

mature postpartum sows = assay: Intravulvar deslorelin at estrus detection in mature postpartum sows, AI breeding; settings: live piglets born per litter, treated versus control
Experimental: Sows were assigned randomly in blocks of two to either control or to be injected intravulvar with 50 mcg of deslorelin in SAIB at the time of estrus detection for sows first detected in estrus in the a.m. and 12 hours later for those first detected in estrus in the p.m. Treated animals were bred AI upon detected estrus and again 24 hours later if still in estrus. Controls received a saline injection on first detected estrus behavior estrus detection and were bred according to the farm's normal procedures.

Compound: CCNC(=O)[C@@H]1CCCN1C(=O)[C@H](CCCN=C(N)N)NC(=O)[C@H](CC(C)C)NC(=O)[C@@H](Cc1c[nH]c2ccccc12)NC(=O)[C@H](Cc1ccc(O)cc1)NC(=O)[C@H](CO)NC(=O)[C@H](Cc1c[nH]c2ccccc12)NC(=O)[C@H](Cc1cnc[nH]1)NC(=O)[C@@H]1CCC(=O)N1 [Deslorelin, deslorelin]
- Pregnancy Rate (postpartum sows [1]; single AI 28+/-2 h later, no estrus detection): 71%
- Embryo Survival (postpartum sows [1]; slaughter around 28 days post breeding): 64%
- Sows Pregnant (postpartum sows [1]; of 84 in group, single AI 28+/-2 h later, no estrus detection): 60
- litter sizes (in words) (postpartum sows [2]): normal litter sizes
- Live piglet number, Deslorelin versus Saline sows (greater by) (mature postpartum sows): Live piglet number 0.6> in Deslorelin versus Saline sows.
